Values after ≈ are worked out from the molar mass of the structure shown.
Tests used:
[1] = test system: YFP-SUMO1; experiment: YFP-SUMO1 accumulation (cell image) in HEK-293 cells expressing YFP-SUMO1 and pcDNA3.0-SERCA2a; type: cell-based; details: increase vs. DMSO; for fold induction at 10 µM: Homo sapiens, HEK293, 24 hours; for YFP accumulation: 10 μM, 24 hours
From the text: (§1) The following antibodies were used for immunoblotting and immunoprecipitation (IP): polyclonal anti-SERCA2a (21th century Biochem Inc.), monoclonal anti-GAPDH (Sigma-Aldrich, catalog no. G8795), monoclonal anti-SUMO 1 (Cell Signaling Technology Inc., catalog no. 4930), anti-mouse horseradish peroxidase (HRP) (Pierce Biotechnology Inc., catalog no. 32430), and anti-rabbit HRP (Pierce Biotechnology Inc., catalog no. 32460). YFP-tagged SUMO1, pcDNA3.0-SERCA2a, and HA-tagged Ubc9 plasmids were used for the transfection. The plasmid DNA was amplified in the Escherichia coli strain DH5a and extracted by using a commercial purification kit (Qiagen, catalog no. 12263). Purified plasmid was resuspended in sterile TE buffer (10 mM Tris-HCl and 1 mM EDTA, pH 7.6). Only the preparation highest purity (A260/A280>1.8) was used for transfection. 1 μg of each plasmid was used for transfection. HEK-293 cells (American Type Culture Collection, catalog no. CRL-1873) were grown at 37° C. and under a 5% CO2 humidified atmosphere in Dulbecco's modified Eagle's medium (DMEM, Cellgro, catalog no. 10-0 13-CM) containing 10% fetal bovine serum (SAFC Bioscience, catalog no. 12107) and 100 i.u of penicillin/ml and 100 μg of streptomycin/ml. HEK-293 cells were seeded at a density of 3-5×10^5 cells per 60 mm culture dish in DMEM. The cells were transiently transfected using Lipofectamine 2000 (Invitrogen, catalog no. 11668) with indicated expression plasmids. After 24 hours, the cells were treated with either small molecules or dimethyl sulfoxide (DMSO, Sigma-Aldrich, catalog no. D2650).
(§2) Each compound was added at 10 μM. DMSO was used as a control. After 24 hours at 37° C., SERCA2a SUMOylation and functional analysis were determined.
Cellular permeability and potential activity of the compounds were examined by tracking of the YFP-SUMO1. HEK-293 cells expressing YFP-SUMOI and pcDNA3.0-SERCA2a were incubated with either 10 μM DMSO or 10 μM small molecules for 24 hours at 37° C. Fluorescent signals were monitored by fluorescence microscopy. HA-tagged Ubc9 expressing cells were served as a positive control.
The ability of the Example compound to SUMOylate SERCA2a was examined using an in vitro system in HEK 293 cells where both SERCA2a and SUMO 1 are expressed. The cellular permeability and potential activity of the Example compounds was examined by tracking of the YFP-SUM01. HEK-293 cells expressing YFP-SUM01 and pcDNA3.0-SERCA2a were treated with either 10 μM DMSO or 10 μM indicated Example 1 for 24 hrs. Fluorescent signals were monitored by fluorescence microscopy. HA-Ubc9 expressing cells were served as a positive control. The SERCA2a SUMOylation profiling was then analyzed by using the same cells (FIG. 1B, WCL, whole cell lysates; S-SERCA2a, SUMOylated SERCA2a).

[2] = test system: SERCA2a; experiment: SERCA2a SUMOylation assay in HEK-293 cells (immunoprecipitation/immunoblotting); type: cell-based; details: compared with DMSO control; 10 μM
From the text: as §1, §2
Equal amounts of protein from either small molecule treated or DMSO treated cells or immunoprecipitates were resolved by 7.5% SDS-PAGE and transferred to nitrocellulose membranes (Bio-Rad, catalog no. 162-0112). The membranes were blocked for 1 hour at room temperature with 5% non-fat milk (Cell Signaling Technology Inc., catalog no. 9999) in TBST (10 mM Tris-HCl, 150 mM NaCl, and 0.05% tween-20, pH 8.0). The blots were incubated with specific primary antibodies at 4° C. for overnight. The blots were then washed five times for 10 minutes each with TBST and incubated for 1 hour with HRP-conjugated secondary antibodies in TBST with 5% non-fat milk. After five times TBST washes, the protein bands were visualized with enhanced chemiluminescence (Pierce Biotechnology Inc., catalog no. 32132) and exposed to x-ray film (Denville Scientific Inc., catalog no. E3012). GAPDH expression provided an internal control.
Post-transfection (48 hours), the HEK-293 cells were rinsed twice with phosphate-buffered saline (PBS, Cellgro, catalog no. 21-040-CM) and lysed in 1% Nonidet P-40 lysis buffer (Boston Bioproducts, catalog no. BP-119) with 10 mM N-ethylmaleimide (NEM, Sigma-Aldrich, catalog no. N3876) and […] inhibitor cocktail (Complete Mini Tablet, Roche Applied Science, catalog no. 11836153001). 2 mg of protein were mixed with the anti-SERCA2a antibodies for overnight at 4° C. in lysis buffer. Pre-washed protein A-Separose beads (Pierce Biotechnology Inc., catalog no. 20333) was added to each sample and incubated 1 hour at 4° C. with gentle rocking. Immunocomplexes were washed with lysis buffer three times and precipitated by centrifugation at 12000×g for 10 seconds. The immunocomplexes were resuspended in SDS sample buffer and subjected to immunoblotting. Controls for the immunoprecipitations were performed using an anti-rabbit IgG equal to that of the primary precipitating antibody. Ten percent of whole cell lysates used in the immunoprecipitation was loaded for subsequent immunoblotting.
The ability of the Example compound to SUMOylate SERCA2a was examined using an in vitro system in HEK 293 cells where both SERCA2a and SUMO 1 are expressed. […]

[3] = Solubility (Table 2)
[4] = test system: HEK-293 cells; experiment: Toxicity (Table 2; cytotoxicity in the compound screen)
[5] = DMSO, organic solvent or mixture

| solubility [3, 5] [mM] | solubility ([3]; in DMSO (printed for the 10 mM cells)) | Structure (SMILES) | fold induction at 10 µM [1] | SERCA2a SUMOylation [2] | Toxicity [4] | YFP accumulation [1] |
| --- | --- | --- | --- | --- | --- | --- |
| 5 (≈ 1920 µg/mL) |  | COc1ccc(-c2nnc(Nc3nc4cc(OC)c(OC)cc4s3)o2)cc1 [Example 17, N-(5,6-dimethoxybenzo[d]thiazol-2-yl)-5-(4-methoxyphenyl)-1,3,4-oxadiazol-2-amine] | 2.2 | Not statistically significant | Non-toxic |  |
| < 2.5 |  | COc1cccc(-c2nnc(Nc3nc4cc(OC)ccc4s3)o2)c1 [Example 15, N-(5-methoxybenzo[d]thiazol-2-yl)-5-(3-methoxyphenyl)-1,3,4-oxadiazol-2-amine] |  | Not statistically significant | > 50% | Active |
| 10 (≈ 3420 µg/mL) |  | COc1cccc2sc(Nc3nnc(-c4ccc(F)cc4)o3)nc12 [Example 5, 5-(4-fluorophenyl)-N-(4-methoxybenzo[d]thiazol-2-yl)-1,3,4-oxadiazol-2-amine] | 2.54 | Not statistically significant | Non-toxic |  |
| < 2.5 |  | Fc1ccc2nc(Nc3nnc(-c4ccccc4Cl)o3)sc2c1 [Example 11, 5-(2-chlorophenyl)-N-(6-fluorobenzo[d]thiazol-2-yl)-1,3,4-oxadiazol-2-amine] |  | Not statistically significant | > 50% | Active |
| < 2.5 |  | COc1ccc2nc(Nc3nnc(-c4ccc(Cl)cc4)o3)sc2c1 [Example 10, 5-(4-chlorophenyl)-N-(6-methoxybenzo[d]thiazol-2-yl)-1,3,4-oxadiazol-2-amine] |  | Not statistically significant | > 50% | Active |
| 10 (≈ 3120 µg/mL) |  | Fc1cccc2sc(Nc3nnc(-c4ccccc4)o3)nc12 [Example 7, N-(4-fluorobenzo[d]thiazol-2-yl)-5-phenyl-1,3,4-oxadiazol-2-amine] | 2.2 | Not statistically significant | Non-toxic |  |
| 10 (≈ 3540 µg/mL) |  | COc1ccc2nc(Nc3nnc(-c4ccccc4OC)o3)sc2c1 [Example 8, N-(6-methoxybenzo[d]thiazol-2-yl)-5-(2-methoxyphenyl)-1,3,4-oxadiazol-2-amine] | 2.37 | Not statistically significant | 30% |  |
|  | Crystallized at 2.5 | COc1ccc(-c2nnc(Nc3nc4ccc(OC)cc4s3)o2)cc1 [Example 9, N-(6-methoxybenzo[d]thiazol-2-yl)-5-(4-methoxyphenyl)-1,3,4-oxadiazol-2-amine] |  | Not statistically significant | Toxic | Active |
| 10 (≈ 3840 µg/mL) |  | COc1ccc(-c2nnc(Nc3nc4c(OC)cccc4s3)o2)c(OC)c1 [Example 6, 5-(2,4-dimethoxyphenyl)-N-(4-methoxybenzo[d]thiazol-2-yl)-1,3,4-oxadiazol-2-amine] | 2.93 | Not statistically significant | 30% |  |
| < 2.5 |  | COc1cccc(-c2nnc(Nc3nc4ccc(F)cc4s3)o2)c1 [Example 13, N-(6-fluorobenzo[d]thiazol-2-yl)-5-(3-methoxyphenyl)-1,3,4-oxadiazol-2-amine] |  | Not statistically significant | > 50% | Active |
| < 2.5 |  | COc1ccc(-c2nnc(Nc3nc4cc(OC)ccc4s3)o2)cc1 [Example 16, N-(5-methoxybenzo[d]thiazol-2-yl)-5-(4-methoxyphenyl)-1,3,4-oxadiazol-2-amine] |  | Not statistically significant | > 50% | Active |
| < 2.5 |  | Fc1ccc(-c2nnc(Nc3nc4ccc(F)cc4s3)o2)cc1 [Example 12, N-(6-fluorobenzo[d]thiazol-2-yl)-5-(4-fluorophenyl)-1,3,4-oxadiazol-2-amine] |  | Not statistically significant | > 50% | Active |
| < 2.5 |  | COc1ccc(-c2nnc(Nc3nc4ccc(SC)cc4s3)o2)cc1 [Example 18, 5-(4-methoxyphenyl)-N-(6-(methylthio)benzo[d]thiazol-2-yl)-1,3,4-oxadiazol-2-amine] |  | Not statistically significant | > 50% | Active |
